Reference: patent US9133206B2, “Benzodiazepine and pyridodiazepine derivatives” (AbbVie Inc., priority 2010, dated 2015)

Test system: SK-N-SH human neuroblastoma cells
Assay: Serum Deprivation/JC-1 Mitochondrial Membrane Potential (MMP) Assay
Format: cell-based
Conditions: Homo sapiens, SK-N-SH; for EC50: 18 h, serum deprivation ~18 hours, JC-1 ratio normalized to peak value for 10 μM dimebolin, single curve fit to mean data of n=2-3; for Emax: percent maximal intensity in JC-1 ratio normalized to peak value for 10 μM dimebolin, serum deprivation, read-out: JC-1 max %
Text: The method also involves a high-throughput assay using serum-deprivation conditions involving neuronal cells to screen for compounds that increase or preserve mitochondrial membrane potential. Such compounds can be found to aid in rescuing cells from energy-depletion that occurs in several neurodegenerative states. Mitochondrial-mediated apoptosis occurs in response to a wide range of apoptotic stimuli including p^53, c-myc, DNA damage, prooxidants, chemotherapeutic agents, serum starvation and death receptor activation (Lin C—H., Lu Y-Z., Cheng, F-C., Chu L-F. and Hsuch C-M. Bax-regulated mitochondrial-mediated apoptosis is responsible for the in vitro ischemia induced neuronal cell death of Sprague Dawley rat. Neuroscience Lett. 2005, 387, 22-27).
Thus, this stress inducer, serum deprivation, combined with monitoring changes in the mitochondrial membrane potential in a 96-well format allows for the establishment of an efficient high-throughput screen (HTS) in order to evaluate the ability of compounds to increase mitochondrial membrane potential in the presence of stress and preserve health of the cell. Exemplary procedures for conducting such high-throughput assay are provided below.
SK-N-SH human neuroblastoma cells obtained from American Type Culture Collection (Rockville, Md.) were maintained in the log phase of growth in Minimal Essential Media (MEM), 10% heat inactivated fetal calf serum and 100 units/mL antibiotic-antimycotic (AA). Cells were cultured and maintained in a humidified incubator at 37° C. under 5% CO2 and 95% air. Cells were trypsinized (0.25%) and subcultured every 3 days and used from 15-18 passages. All cell culture supplies were obtained from Invitrogen (Carlsbad, Calif.).
SK-N-SH cells were plated 2-3 days in advance at a concentration of 50,000 cells/well onto collagen coated black-walled 96 well plates (Becton-Dickinson, Bedford, Mass.) in a total volume of […]. On day of experimental treatment, the media containing serum was aspirated from each well and rinsed once with MEM/1% AA without serum. The cells then were incubated overnight in 100 μL of MEM/1% AA (no serum) with and without dimebolin or novel chemical entities overnight for ˜18 hours. The following day, JC-1 dye (5,5′,6,6′-tetrachloro-1,1′,3,3′-tetraethylbenzimidazolcarbocyanide) was diluted 1:10 into MEM media according to the JC-1 Mitochondrial Membrane Potential Assay Kit: (Cayman Chemical Company, Ann Arbor, Mich.) and then 10 μL of the JC-1 dye solution was added to each well. The plates were centrifuged for 5 minutes at 400×g at room temperature followed by 40 minute incubation at 37° C. The plates were washed twice with 200 μL of provided Assay Buffer followed an addition of 100 μL of Assay Buffer to each well. The plates were read with an excitation and emission of 560 nm and 595 nM for red fluorescence and with an excitation and emission of 485 nm and 535 nM for green fluorescence to determine the final JC-1 value taking the red to green fluorescence ratio. This assay is based on change in mitochondrial membrane potential (MMP) using this lipophilic cationic dye, JC-1, by monitoring the changes in the ratio of red to green fluorescence as the MMP depolarizes. This change in MMP reflects the health of the cell with healthy, viable cells have a high JC-1 ratio and high MMP whereas apoptotic, unhealthy cells have a low JC-1 ratio or low MMP.
For the ability of compounds to reverse the stress due to serum deprivation and increase the JC-1 ratio, the percent maximal intensity in JC-1 ratio was normalized to that induced by the peak value for 10 μM dimebolin and plotted against the compound concentration to calculate EC50 values and to control for plate-to-plate variability. Concentration-response data were analyzed using GraphPad Prism (San Diego, Calif.); the EC50 values were derived from a single curve fit to the mean data of n=2-3, in duplicates. […]

Compound	EC50 [µM]	Emax [%]
c1ccc(CN2CCN3c4ccccc4NCCC3C2)cc1 (stereo not drawn) [Example 26, 3-benzyl-1,2,3,4,4a,5,6,7-octahydropyrazino[1,2-a][1,5]benzodiazepine]	3.47	210
O=C(Cc1ccc(Cl)cc1)N1CCC2CN(Cc3ccccc3)CCN2c2ccccc21 (stereo not drawn) [Example 27, 1-(3-benzyl-2,3,4,4a,5,6-hexahydropyrazino[1,2-a][1,5]benzodiazepin-7(1H)-yl)-2-(4-chlorophenyl)ethanone]	4.44	149
c1ccc(CN2CCN3c4ccccc4CN(Cc4cccnc4)CC3C2)cc1 (stereo not drawn) [Example 28, 3-benzyl-6-(pyridin-3-ylmethyl)-1,2,3,4,4a,5,6,7-octahydropyrazino[1,2-a][1,4]benzodiazepine]	9.59	88
c1ccc(CN2CCN3c4ccccc4CN(Cc4ccccn4)CC3C2)cc1 (stereo not drawn) [Example 29, 3-benzyl-6-(pyridin-2-ylmethyl)-1,2,3,4,4a,5,6,7-octahydropyrazino[1,2-a][1,4]benzodiazepine]	4.87	221
c1ccc(CN2CCN3c4ccccc4CN(Cc4ccncc4)CC3C2)cc1 (stereo not drawn) [Example 30, 3-benzyl-6-(pyridin-4-ylmethyl)-1,2,3,4,4a,5,6,7-octahydropyrazino[1,2-a][1,4]benzodiazepine]	3.6	216
O=C(c1ccc(Br)cc1)N1Cc2ccccc2N2CCN(Cc3ccccc3)CC2C1 (stereo not drawn) [Example 31, (3-benzyl-1,2,3,4,4a,5-hexahydropyrazino[1,2-a][1,4]benzodiazepin-6(7H)-yl)(4-bromophenyl)methanone]	1.97	218
Cc1ccc(CN2Cc3ccccc3N3CCN(Cc4ccccc4)CC3C2)cn1 (stereo not drawn) [Example 32, 3-benzyl-6-[(6-methylpyridin-3-yl)methyl]-1,2,3,4,4a,5,6,7-octahydropyrazino[1,2-a][1,4]benzodiazepine]	1.98	140
c1ccc(CN2CCN3c4ccccc4CN(Cc4cnc5ccccc5c4)CC3C2)cc1 (stereo not drawn) [Example 33, 3-benzyl-6-(quinolin-3-ylmethyl)-1,2,3,4,4a,5,6,7-octahydropyrazino[1,2-a][1,4]benzodiazepine]	1.3	192
Clc1ccc(CN2Cc3ccccc3N3CCN(Cc4ccccc4)CC3C2)cn1 (stereo not drawn) [Example 34, 3-benzyl-6-[(6-chloropyridin-3-yl)methyl]-1,2,3,4,4a,5,6,7-octahydropyrazino[1,2-a][1,4]benzodiazepine]	2.94	213
FC(F)(F)c1ccc(CN2Cc3ccccc3N3CCN(Cc4ccccc4)CC3C2)cn1 (stereo not drawn) [Example 35, 3-benzyl-6-{[6-(trifluoromethyl)pyridin-3-yl]methyl}-1,2,3,4,4a,5,6,7-octahydropyrazino[1,2-a][1,4]benzodiazepine]	2.86	159
c1ccc(CN2CCN3c4ccccc4CN(Cc4ccnc5ccccc45)CC3C2)cc1 (stereo not drawn) [Example 36, 3-benzyl-6-(quinolin-4-ylmethyl)-1,2,3,4,4a,5,6,7-octahydropyrazino[1,2-a][1,4]benzodiazepine]	1.05	137
c1ccc(CN2CCN3c4ccccc4CN(Cc4cncc5ccccc45)CC3C2)cc1 (stereo not drawn) [Example 37, 3-benzyl-6-(isoquinolin-4-ylmethyl)-1,2,3,4,4a,5,6,7-octahydropyrazino[1,2-a][1,4]benzodiazepine]	1.21	172
O=C1NCc2ccccc2N2CCN(Cc3ccc(F)cc3)CC12 (stereo not drawn) [Example 38, 3-(4-fluorobenzyl)-2,3,4,4a,6,7-hexahydropyrazino[1,2-a][1,4]benzodiazepin-5(1H)-one]	> 30	27
Brc1ccc(CN2Cc3ccccc3N3CCN(Cc4ccccc4)CC3C2)cn1 (stereo not drawn) [Example 39, 3-benzyl-6-[(6-bromopyridin-3-yl)methyl]-1,2,3,4,4a,5,6,7-octahydropyrazino[1,2-a][1,4]benzodiazepine]	3.69	200
Fc1ccc(CN2CCN3c4ccccc4CNCC3C2)cc1 (stereo not drawn) [Example 40, 3-(4-fluorobenzyl)-1,2,3,4,4a,5,6,7-octahydropyrazino[1,2-a][1,4]benzodiazepine]	11.8	224
O=C(c1ccc(Br)cc1)N1CCC2CN(Cc3ccccc3)CCN2c2ccccc21 (stereo not drawn) [Example 41, (3-benzyl-2,3,4,4a,5,6-hexahydropyrazino[1,2-a][1,5]benzodiazepin-7(1H)-yl)(4-bromophenyl)methanone]	4.67	186
Brc1ccc(CN2Cc3ccccc3N3CCN(Cc4ccccc4)CC3C2)nc1 (stereo not drawn) [Example 42, 3-benzyl-6-[(5-bromopyridin-2-yl)methyl]-1,2,3,4,4a,5,6,7-octahydropyrazino[1,2-a][1,4]benzodiazepine]	3.09	189
O=C(c1ccncc1)N1CCC2CN(Cc3ccccc3)CCN2c2ccccc21 (stereo not drawn) [Example 43, (3-benzyl-2,3,4,4a,5,6-hexahydropyrazino[1,2-a][1,5]benzodiazepin-7(1H)-yl)(pyridin-4-yl)methanone]	6.76	115
Clc1ccc(CCN2CCC3CN(Cc4ccccc4)CCN3c3ccccc32)cc1 (stereo not drawn) [Example 44, 3-benzyl-7-[2-(4-chlorophenyl)ethyl]-1,2,3,4,4a,5,6,7-octahydropyrazino[1,2-a][1,5]benzodiazepine]	3	291
c1ccc(CN2CCN3c4ccccc4N(Cc4ccccc4)CCC3C2)cc1 (stereo not drawn) [Example 45, 3,7-dibenzyl-1,2,3,4,4a,5,6,7-octahydropyrazino[1,2-a][1,5]benzodiazepine]	5.93	238
Ic1ccc(CN2Cc3ccccc3N3CCN(Cc4ccccc4)CC3C2)cc1 (stereo not drawn) [Example 46, 3-benzyl-6-(4-iodobenzyl)-1,2,3,4,4a,5,6,7-octahydropyrazino[1,2-a][1,4]benzodiazepine]	1.87	192
Brc1ccc(CN2CCC3CN(Cc4ccccc4)CCN3c3ccccc32)cc1 (stereo not drawn) [Example 47, 3-benzyl-7-(4-bromobenzyl)-1,2,3,4,4a,5,6,7-octahydropyrazino[1,2-a][1,5]benzodiazepine]	2.78	273
c1ccc(CN2CCN3c4ccccc4N(Cc4ccncc4)CCC3C2)cc1 (stereo not drawn) [Example 48, 3-benzyl-7-(pyridin-4-ylmethyl)-1,2,3,4,4a,5,6,7-octahydropyrazino[1,2-a][1,5]benzodiazepine]	1.84	125
CN1CCC2CN(Cc3ccccc3)CCN2c2ccccc21 (stereo not drawn) [Example 49, 3-benzyl-7-methyl-1,2,3,4,4a,5,6,7-octahydropyrazino[1,2-a][1,5]benzodiazepine]	10.4	128
Oc1ccc(CN2Cc3ccccc3N3CCN(Cc4ccccc4)CC3C2)cc1 (stereo not drawn) [Example 50, 4-[(3-benzyl-1,2,3,4,4a,5-hexahydropyrazino[1,2-a][1,4]benzodiazepin-6(7H)-yl)methyl]phenol]	5.95	240
O=C1CC2CN(Cc3ccccc3)CCN2c2ncccc2N1 (stereo not drawn) [Example 51, 9-benzyl-7,7a,8,9,10,11-hexahydropyrazino[1,2-d]pyrido[3,2-b][1,4]diazepin-6(5H)-one]	8.83	68
c1ccc(CN2CCN3c4ncccc4NCCC3C2)cc1 (stereo not drawn) [Example 52, 9-benzyl-5,6,7,7a,8,9,10,11-octahydropyrazino[1,2-d]pyrido[3,2-b][1,4]diazepine]	5.97	100
